From US4346075A, “Antibiotic DC-11 and process for production thereof” (Kyowa Hakko Kogyo Co., Ltd., priority 1980, dated 1982)
In brackets after ≈: the same amount, converted by molar mass.

What was measured:
[1] = test system: Sarcoma 180 ascites tumor; assay: effect on sarcoma 180 ascites tumor; format: in vivo, male ddY-strain mice; conditions: seven days after implantation
Method: Six male ddY-strain mice having a weight of 20 g are used for each group as test animals; and 5×10^6 cells of Sarcoma 180 ascites tumor are implanted in the animals. After 24 hours following implantation, 0.2 ml phosphate buffered saline (PBS) containing DC-11 in various concentrations is administered intraperitoneally. PBS comprises 0.8 g/dl NaCl, 0.02 g/dl KCl, […] Na2 HPO4, 0.02 g/dl KH2 PO4 (pH 7.2).
For comparison, 0.2 ml PBS solution containing mitomycin C is administered to a group of amimals intraperitoneally at the same time as the test compound.
Seven days after implantation, the average tumor volume (mm^3) and T/C (T: average tumor volume of test compound, C: that of control) are determined.

[2] = test system: Lymphocytic leukemia P-388 tumor; assay: effect on Lymphocytic leukemia P-388 tumor; format: in vivo, male CDF1 mice; conditions: 24 hours following implantation
Method: Five male CDF1 mice having a weight of about 22 g are used for each group as test animals, and 1×10^6 cells of Lymphocytic leukemia P-388 tumor are implanted intraperitoneally in the test animals. Twenty-fours hours following implantation, 0.2 ml PBS solution containing DC-11 in various concentrations is administered intraperitoneally.
For comparison, 0.2 ml PBS solution containing mitomycin C is administered to a group of test animals intraperitoneally at the same time as the test compound.
The average survival period (ASP: days) and T/C (T: average survival days of the groups administered with test compound, C: average survival days of the control group) after implantation are shown in the following Table 6.

[3] = test system: Klebsiella pneumoniae ATCC 10031; assay: in vitro antibacterial spectrum, disc method (pH 8.0); format: cell-based; conditions: ATCC10031, Klebsiella pneumoniae ATCC 10031, disc method, read-out: Minimum Inhibitory Concentration (MIC)
Text: (§1) The in vitro antibacterial spectra of DC-11 determined by the disc method (pH 8.0) is illustrated in the following Table 4.

[4] = test system: Shigella sonnei ATCC 9290; assay: as above; format: cell-based; conditions: ATCC9290, Shigella sonnei ATCC 9290, disc method, read-out: Minimum Inhibitory Concentration (MIC)
Text: as §1

[5] = test system: Bacillus subtilis No. 10707; assay: as above; format: cell-based; conditions: Bacillus subtilis No. 10707, disc method, read-out: Minimum Inhibitory Concentration (MIC)
Text: as §1

[6] = test system: Staphylococcus aureus ATCC 6538 P; assay: as above; format: cell-based; conditions: ATCC6538, read-out: Minimum Inhibitory Concentration (MIC)
Text: as §1

Escherichia coli ATCC 26 = assay: as above; format: cell-based; conditions: ATCC26, Escherichia coli ATCC 26, disc method, read-out: Minimum Inhibitory Concentration (MIC)
Text: as §1

[7] = test system: Salmonella typhosa ATCC 9992; assay: as above; format: cell-based; conditions: Salmonella enterica, pH 8, read-out: Minimum Inhibitory Concentration (MIC)
Text: as §1

solubility = format: physicochemical
[8] = acute toxicity, intraperitoneal, mice; conditions: mouse, in vivo, ip, intraperitoneally

CO[C@@]12[C@H](COC(N)=O)C3=C(C(=O)C(C)=C(N)C3=O)N1C[C@@H]1N[C@@H]12 [Mitomycin C, mitomycin C, reference compound]
T/C (average tumor volume of test compound / control) ([1]; 4.2 mg/Kg i.p.): 0.32
V: average tumor volume ([1]; 4.2 mg/Kg i.p.): 450 mm^3
T/C (average survival days, test group / control group) ([2]; 4.2 mg/Kg i.p.): 1.51
average survival period (ASP) ([2]; 4.2 mg/Kg i.p.): 14.2 days

COC(=O)NC1C(C)OC(OC2CC=C(C)C3C=CC4C(OC5CC(OC6CCC(OC7CC(O)C(OC8CCC(O)C(C)O8)C(C)O7)C(C)O6)C(OC(C)=O)C(C)O5)C(C)CC(C)C4C3(C)C(=O)C3=C(O)C4(CC(C=O)=CC(O)C4C=C2C)OC3=O)CC1(C)[N+](=O)[O-] (centres unmarked) [DC-11]
MIC [3]: > 100 µg/mL
MIC [4]: > 100 µg/mL
MIC [5]: 0.1 µg/mL (≈ 0.0761 µM)
MIC [6]: 20 µg/mL (≈ 15.2 µM)
MIC (Escherichia coli ATCC 26): > 100 µg/mL
MIC [7]: > 100 µg/mL
Solubility (solubility; benzene and water): slightly soluble
Solubility (solubility; ethylether, petroleum ether and n-hexane): insoluble
Solubility (solubility; methanol, ethanol, butanol, acetone, ethyl acetate and chloroform): soluble
T/C (average tumor volume of test compound / control) ([1]; 25 mg/Kg i.p.): 0.78
V: average tumor volume ([1]; 25 mg/Kg i.p.): 1096 mm^3
T/C (average tumor volume of test compound / control) ([1]; 50 mg/Kg i.p.): 0.52
V: average tumor volume ([1]; 50 mg/Kg i.p.): 730 mm^3
T/C (average tumor volume of test compound / control) ([1]; 70 mg/Kg i.p.): 0.42
V: average tumor volume ([1]; 70 mg/Kg i.p.): 590 mm^3
LD50 [8]: 54 mg/kg
T/C (average survival days, test group / control group) ([2]; 6.25 mg/Kg i.p.): 1.20
average survival period (ASP) ([2]; 6.25 mg/Kg i.p.): 11.2 days
T/C (average survival days, test group / control group) ([2]; 12.5 mg/Kg i.p.): 1.43
average survival period (ASP) ([2]; 12.5 mg/Kg i.p.): 13.4 days
T/C (average survival days, test group / control group) ([2]; 25.0 mg/Kg i.p.): 1.38
average survival period (ASP) ([2]; 25.0 mg/Kg i.p.): 13.0 days
